Activity calls are given as the source filed them.
Columns and labels:
cells = assay type: functional
Kallikrein-7 = Kallikrein-7 (Homo sapiens, UniProt P49862); assay: Fluorescence Intensity-based biochemical primary high throughput dose response assay to identify activators of kallikrein-7 (K7) zymogen.
[1] = biological target: Mitogen-activated protein kinase 10 (Homo sapiens, UniProt P53779); assay: Dose response biochemical screening assay for inhibitors of c-Jun N-Terminal Kinase 3 (JNK3). [Related pubchem assays: 746 ]
[2] = biological target: T1, RNA-binding protein pos-1 (Caenorhabditis elegans, UniProt G5EF15); assay: inhibitors of POS-1/mex-3 RNA binding, dose response, biochemical, fluorescence polarization (AID 1964);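 also: purified POS-1 fused to maltose binding protein made in E. coli; potency of compounds blocking POS-1 binding to fluorescent RNA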
T1 sequence (G5EF15 whole entry): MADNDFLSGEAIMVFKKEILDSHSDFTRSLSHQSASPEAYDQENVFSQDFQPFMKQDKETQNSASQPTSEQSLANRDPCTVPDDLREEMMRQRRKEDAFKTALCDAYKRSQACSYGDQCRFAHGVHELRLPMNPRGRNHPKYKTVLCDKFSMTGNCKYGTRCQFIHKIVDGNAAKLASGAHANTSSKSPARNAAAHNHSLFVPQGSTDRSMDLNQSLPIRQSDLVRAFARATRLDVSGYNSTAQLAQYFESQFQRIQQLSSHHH

[3] = biological target: T2, Zinc finger protein mex-5 (Caenorhabditis elegans, UniProt Q9XUB2); assay: MEX-5/TCR-2 RNA interaction inhibitors, dose response, biochemical, C. elegans, fluorescence polarization (AID 1960)
T2 sequence (Q9XUB2 whole entry): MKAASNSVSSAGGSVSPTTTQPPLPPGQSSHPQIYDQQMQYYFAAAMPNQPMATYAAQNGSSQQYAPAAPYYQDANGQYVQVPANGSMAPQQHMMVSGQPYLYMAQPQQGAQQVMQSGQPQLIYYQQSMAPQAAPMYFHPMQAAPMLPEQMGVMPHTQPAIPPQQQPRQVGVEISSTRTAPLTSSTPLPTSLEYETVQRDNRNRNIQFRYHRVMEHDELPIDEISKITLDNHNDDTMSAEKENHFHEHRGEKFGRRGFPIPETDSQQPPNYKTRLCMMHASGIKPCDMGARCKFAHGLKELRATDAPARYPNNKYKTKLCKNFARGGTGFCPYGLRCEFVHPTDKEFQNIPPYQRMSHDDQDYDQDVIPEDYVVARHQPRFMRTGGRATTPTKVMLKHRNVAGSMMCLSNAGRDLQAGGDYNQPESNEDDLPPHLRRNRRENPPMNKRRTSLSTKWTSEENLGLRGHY

[4] = biological target: Glucose-6-phosphate 1-dehydrogenase (Homo sapiens, UniProt P11413); assay: human G6PD enzyme inhibitors, dose response, selectivity assay for P. falciparum G6PD inhibitor project, biochemical, fluorescence (AID 504792); assay type: functional
[5] = biological target: T3, Carboxy-terminal domain RNA polymerase II polypeptide A small phosphatase 1 (Homo sapiens, UniProt Q9GZU7); assay: inhibitors of CTDSP1, concentration-response testing, biochemical assay, absorbance-based, actives from ultra-high-throughput screening (AID 540297); assay type: functional
T3 sequence (Q9GZU7 whole entry): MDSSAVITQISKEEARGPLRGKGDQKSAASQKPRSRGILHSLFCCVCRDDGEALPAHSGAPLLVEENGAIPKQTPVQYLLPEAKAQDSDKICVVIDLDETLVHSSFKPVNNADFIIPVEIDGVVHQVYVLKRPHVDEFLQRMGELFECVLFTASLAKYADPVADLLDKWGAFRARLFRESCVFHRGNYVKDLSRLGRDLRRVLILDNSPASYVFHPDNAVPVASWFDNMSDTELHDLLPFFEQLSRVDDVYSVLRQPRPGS

[6] = biological target: 1-phosphatidylinositol 4,5-bisphosphate phosphodiesterase gamma-1 (Homo sapiens, UniProt P19174); assay: Counterscreen for inhibitors of phospholipase C isozymes (PLC-B3): Fluorescence-based biochemical high throughput dose response assay to identify inhibitors of phospholipase C isozymes (PLC-gamma1).
[7] = biological target: 1-phosphatidylinositol 4,5-bisphosphate phosphodiesterase beta-3 (Homo sapiens, UniProt Q01970); assay: Fluorescence-based biochemical high throughput dose response assay to identify inhibitors of phospholipase C isozymes (PLC-B3).
[8] = biological target: T4, Microphthalmia-associated transcription factor (Homo sapiens, UniProt O75030); assay: TRPM1 promoter luciferase signal decrease, dose response, MITF inhibitor project, cell-based, SK-MEL-5, cherry-picked, set 3 (AID 493073); assay type: functional
T4 sequence (O75030 whole entry): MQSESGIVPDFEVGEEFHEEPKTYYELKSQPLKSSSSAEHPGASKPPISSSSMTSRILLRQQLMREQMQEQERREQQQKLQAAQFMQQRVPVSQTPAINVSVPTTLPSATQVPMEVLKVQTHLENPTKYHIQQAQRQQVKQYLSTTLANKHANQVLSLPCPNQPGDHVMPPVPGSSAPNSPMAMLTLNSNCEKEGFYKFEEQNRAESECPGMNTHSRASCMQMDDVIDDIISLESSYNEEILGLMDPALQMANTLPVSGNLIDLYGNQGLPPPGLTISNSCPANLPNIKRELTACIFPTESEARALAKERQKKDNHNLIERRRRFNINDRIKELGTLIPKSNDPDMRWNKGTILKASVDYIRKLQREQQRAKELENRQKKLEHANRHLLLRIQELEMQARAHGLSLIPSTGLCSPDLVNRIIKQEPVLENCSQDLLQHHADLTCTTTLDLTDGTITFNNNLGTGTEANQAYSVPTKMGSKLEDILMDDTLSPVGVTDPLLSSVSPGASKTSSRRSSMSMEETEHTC

[9] = Shn3 3'UTR reporter inhibitors, dose response, cell-based, Clone20 osteoblasts, firefly luciferase, cherry-picked (AID 624132); assay type: functional;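 also: firefly luciferase luminescence from reporter carrying the Shn3 3'UTR in osteoblasts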
Paired box protein Pax-8 = Paired box protein Pax-8 (Homo sapiens, UniProt Q06710); assay: inhibitors of PAX8-driven TPO luciferase reporter, dose response, RMG-I cells, cherry-pick (AID 687027); assay type: functional, cell-based;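 also: luciferase reporter driven by Pax8 target thyroperoxidase promoter measured by SteadyGlo luminescence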
[10] = reduction of Shn3 3'UTR firefly luciferase signal, dose response, Schnurri-3 inhibitor project, cell-based, Clone20 osteoblasts, cherry-pick, set 2 (AID 720490); assay type: functional;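 also: actives lower the luminescence signal as inhibitors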
[11] = biological target: Glutathione-S-transferase (Schistosoma japonicum, UniProt Q26513); assay: biotin-GST/anti-GST TR-FRET signal inhibitors, dose response, artefact control for Vif-APOBEC3G degradation inhibitor project, biochemical (AID 1117362); assay type: functional
Nonstructural protein 1 = Nonstructural protein 1 (Influenza A virus, UniProt Q194T2); assay type: functional, Influenza A virus (A/California/07/2009(H1N1))
[12] = biological target: Ras and Rab interactor 1/Tyrosine-protein kinase ABL1 (Homo sapiens, UniProt P00519+Q13671); assay type: functional;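 also: biochemical TR-FRET dose-response test measuring inhibition of binding between Rin1 and Abl proteins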
[13] = biological target: T5, Mannose-6-phosphate isomerase (Homo sapiens, UniProt P34949); assay: human PMI inhibitors, high substrate, primary screen, biochemical, fluorescence intensity, high mannose 6-phosphate (AID 1220)
T5 sequence (P34949 whole entry): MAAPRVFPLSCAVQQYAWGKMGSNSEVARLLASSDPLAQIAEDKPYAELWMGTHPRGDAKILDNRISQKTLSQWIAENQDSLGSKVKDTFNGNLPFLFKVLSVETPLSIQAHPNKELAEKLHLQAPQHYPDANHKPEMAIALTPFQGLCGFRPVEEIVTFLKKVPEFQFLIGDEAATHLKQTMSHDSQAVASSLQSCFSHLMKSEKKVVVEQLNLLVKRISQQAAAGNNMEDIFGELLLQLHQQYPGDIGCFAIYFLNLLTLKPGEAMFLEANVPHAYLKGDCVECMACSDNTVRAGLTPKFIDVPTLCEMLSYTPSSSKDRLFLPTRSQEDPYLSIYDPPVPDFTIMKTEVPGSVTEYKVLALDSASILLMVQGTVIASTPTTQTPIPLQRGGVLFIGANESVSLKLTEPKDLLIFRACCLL

H9c2 = assay: cells; assay type: functional, cell-based; conditions: Rattus norvegicus, H9c2, Myocardium
[14] = HepG2 cell cytotoxicity, dose response, cytotoxicity control for Shn3 inhibitor project, CellTiter-Glo, cherry-picked (AID 624134); assay type: functional, cell-based
[15] = control 3'UTR Renilla luciferase suppression, dose response, counter-screen for Shn3 inhibitor project, cell-based, Clone20-Shn3RL, cherry-picked (AID 624133); assay type: functional
[16] = inhibitors of HIV Env-driven cell fusion, dose response, cherry-pick (AID 652057); assay type: functional, cell-based
[17] = ZM109 Env clade C HIV-1 fusion inhibitors, dose response, HeLa effector, CEM target cells, luciferase, cherry-pick (AID 652058); assay type: functional, cell-based
[18] = off-target signal loss in HeLa-CEM21 co-culture – HeLa F-luc CTL cells, cherry-picked, counter-screen for HIV-1 Env fusion inhibitor project, dose response (AID 652040); assay type: functional, cell-based;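 also: potency for signal decrease marking cytotoxic or nonspecific inhibition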
[19] = inhibitors of clade B AD8 Env fusion, dose response, cell-based, cherry-pick (AID 652062); assay type: functional;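 also: luciferase signal from cell-cell fusion driven by HIV-1 clade B AD8 Env; potency is for inhibitors of fusion seen as a drop in luminescence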
[20] = HeLa 2N DNA content increase, dose response, cell-based, IC50 (AID 1117349); assay type: functional
[21] = Concentration-dependent survival of SW480 colon cancer line, luminescence detection with CellTiter-Glo, half-maximal inhibitory concentration (AID 1117338); assay type: functional
[22] = RKO cell viability reduction, dose response, CellTiter-Glo luminescence (AID 1117322); assay type: functional
[23] = cytotoxicity toward HCT116 cells – cell-based, CellTiter-Glo luminescence, IC50, dose response (AID 1117332); assay type: functional; conditions: HCT-116
[24] = SNU-C1 cell viability reduction, dose response, CellTiter-Glo luminescence (AID 1117323); assay type: functional, cell-based
[25] = cytotoxicity toward Colo320 cells – cell-based, CellTiter-Glo luminescence, IC50, dose response (AID 1117334); assay type: functional; conditions: COLO 320
[26] = HeLa 4N DNA content increase, dose response, cell-based, IC50 (AID 1117351); assay type: functional
[27] = cytotoxicity toward HT-29 cells – cell-based, CellTiter-Glo luminescence, IC50, dose response (AID 1117330); assay type: functional
[28] = CellTiter-Glo luminescent dose response of DLD-1 viability loss (AID 1117352); assay type: functional
[29] = HCT116 cell viability decrease, GSK3B pretreatment – CellTiter-Glo, IC50, dose response (AID 1117339); assay type: functional; conditions: HCT-116

Glutathione-S-transferase, sequence (Q26513 whole entry): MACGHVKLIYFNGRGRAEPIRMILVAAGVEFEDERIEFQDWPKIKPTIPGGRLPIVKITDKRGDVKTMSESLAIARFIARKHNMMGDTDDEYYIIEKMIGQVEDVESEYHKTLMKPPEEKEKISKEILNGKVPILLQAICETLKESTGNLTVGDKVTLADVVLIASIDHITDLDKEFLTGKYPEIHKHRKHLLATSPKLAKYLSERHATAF
Mitogen-activated protein kinase 10, sequence (P53779 whole entry, the tested form may be a part): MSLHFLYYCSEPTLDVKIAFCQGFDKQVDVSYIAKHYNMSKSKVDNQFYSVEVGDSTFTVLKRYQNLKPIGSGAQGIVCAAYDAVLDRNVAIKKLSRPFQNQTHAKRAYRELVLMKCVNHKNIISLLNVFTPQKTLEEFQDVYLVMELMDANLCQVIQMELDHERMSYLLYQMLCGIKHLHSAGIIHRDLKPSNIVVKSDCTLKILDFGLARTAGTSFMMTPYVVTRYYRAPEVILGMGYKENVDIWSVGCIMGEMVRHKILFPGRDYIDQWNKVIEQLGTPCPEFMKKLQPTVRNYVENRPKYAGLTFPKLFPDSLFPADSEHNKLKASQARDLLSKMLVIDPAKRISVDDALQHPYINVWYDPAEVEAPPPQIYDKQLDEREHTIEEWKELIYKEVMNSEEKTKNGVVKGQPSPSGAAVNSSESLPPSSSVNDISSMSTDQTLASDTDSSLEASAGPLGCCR
Kallikrein-7, sequence (P49862 whole entry): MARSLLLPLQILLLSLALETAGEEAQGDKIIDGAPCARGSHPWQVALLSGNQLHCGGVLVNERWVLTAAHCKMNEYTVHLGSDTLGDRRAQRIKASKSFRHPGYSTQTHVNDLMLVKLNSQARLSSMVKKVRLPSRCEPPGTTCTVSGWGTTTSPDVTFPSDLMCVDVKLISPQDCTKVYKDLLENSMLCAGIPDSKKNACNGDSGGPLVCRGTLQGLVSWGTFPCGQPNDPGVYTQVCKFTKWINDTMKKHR
Glucose-6-phosphate 1-dehydrogenase, sequence (P11413 whole entry, the tested form may be a part): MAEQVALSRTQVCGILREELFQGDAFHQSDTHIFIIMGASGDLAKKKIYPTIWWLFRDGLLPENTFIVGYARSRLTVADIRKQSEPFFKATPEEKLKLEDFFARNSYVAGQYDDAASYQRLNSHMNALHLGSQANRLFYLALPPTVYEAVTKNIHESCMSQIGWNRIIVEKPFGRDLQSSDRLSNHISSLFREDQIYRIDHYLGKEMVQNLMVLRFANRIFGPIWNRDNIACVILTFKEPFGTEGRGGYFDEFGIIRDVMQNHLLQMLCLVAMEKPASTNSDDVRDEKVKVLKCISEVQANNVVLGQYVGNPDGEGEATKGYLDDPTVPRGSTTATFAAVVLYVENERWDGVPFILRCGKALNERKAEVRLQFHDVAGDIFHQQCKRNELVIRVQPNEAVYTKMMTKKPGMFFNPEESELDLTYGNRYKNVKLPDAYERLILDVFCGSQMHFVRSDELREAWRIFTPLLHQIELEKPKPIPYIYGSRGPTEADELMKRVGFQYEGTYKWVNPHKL
Nonstructural protein 1, sequence (Q194T2 whole entry): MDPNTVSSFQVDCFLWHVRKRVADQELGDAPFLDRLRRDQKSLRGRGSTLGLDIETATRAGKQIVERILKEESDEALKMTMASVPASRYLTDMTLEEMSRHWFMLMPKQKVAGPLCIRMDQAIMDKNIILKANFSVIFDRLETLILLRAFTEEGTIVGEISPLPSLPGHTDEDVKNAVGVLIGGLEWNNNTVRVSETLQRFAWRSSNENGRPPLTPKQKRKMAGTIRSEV
1-phosphatidylinositol 4,5-bisphosphate phosphodiesterase gamma-1, sequence (P19174 whole entry): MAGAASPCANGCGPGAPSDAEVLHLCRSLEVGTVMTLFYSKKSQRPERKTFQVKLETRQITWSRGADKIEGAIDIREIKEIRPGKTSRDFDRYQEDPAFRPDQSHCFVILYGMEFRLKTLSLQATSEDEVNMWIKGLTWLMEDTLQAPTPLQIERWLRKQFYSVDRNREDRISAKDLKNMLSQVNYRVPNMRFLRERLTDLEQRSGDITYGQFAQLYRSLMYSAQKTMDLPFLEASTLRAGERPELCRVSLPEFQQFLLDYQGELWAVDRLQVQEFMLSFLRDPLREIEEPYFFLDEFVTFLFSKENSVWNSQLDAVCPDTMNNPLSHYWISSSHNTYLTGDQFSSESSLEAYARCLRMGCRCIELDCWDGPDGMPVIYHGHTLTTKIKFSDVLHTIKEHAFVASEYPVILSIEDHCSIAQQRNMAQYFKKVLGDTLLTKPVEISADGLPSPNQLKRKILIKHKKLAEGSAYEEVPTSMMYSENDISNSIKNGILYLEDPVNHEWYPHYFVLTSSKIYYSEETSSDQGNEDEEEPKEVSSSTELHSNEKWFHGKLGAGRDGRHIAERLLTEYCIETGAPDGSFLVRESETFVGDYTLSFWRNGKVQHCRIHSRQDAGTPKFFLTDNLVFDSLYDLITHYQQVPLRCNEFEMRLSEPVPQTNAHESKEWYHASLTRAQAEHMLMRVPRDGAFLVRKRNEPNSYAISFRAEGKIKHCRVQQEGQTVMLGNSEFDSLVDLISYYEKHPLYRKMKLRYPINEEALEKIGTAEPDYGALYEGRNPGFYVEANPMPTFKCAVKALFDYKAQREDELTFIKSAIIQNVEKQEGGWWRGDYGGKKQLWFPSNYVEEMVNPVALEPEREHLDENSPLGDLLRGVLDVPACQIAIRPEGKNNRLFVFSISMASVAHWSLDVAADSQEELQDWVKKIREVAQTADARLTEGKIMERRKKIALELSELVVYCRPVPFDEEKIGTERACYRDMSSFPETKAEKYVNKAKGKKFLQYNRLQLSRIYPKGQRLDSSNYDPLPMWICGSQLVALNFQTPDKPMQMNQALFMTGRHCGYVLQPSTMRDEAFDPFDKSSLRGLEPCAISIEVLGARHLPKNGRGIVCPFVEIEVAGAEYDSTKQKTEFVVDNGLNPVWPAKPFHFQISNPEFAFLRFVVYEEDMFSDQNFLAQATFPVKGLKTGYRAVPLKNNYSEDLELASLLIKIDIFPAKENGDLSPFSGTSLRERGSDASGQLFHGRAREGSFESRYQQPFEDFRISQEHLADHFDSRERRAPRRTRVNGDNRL
Paired box protein Pax-8, sequence (Q06710 whole entry): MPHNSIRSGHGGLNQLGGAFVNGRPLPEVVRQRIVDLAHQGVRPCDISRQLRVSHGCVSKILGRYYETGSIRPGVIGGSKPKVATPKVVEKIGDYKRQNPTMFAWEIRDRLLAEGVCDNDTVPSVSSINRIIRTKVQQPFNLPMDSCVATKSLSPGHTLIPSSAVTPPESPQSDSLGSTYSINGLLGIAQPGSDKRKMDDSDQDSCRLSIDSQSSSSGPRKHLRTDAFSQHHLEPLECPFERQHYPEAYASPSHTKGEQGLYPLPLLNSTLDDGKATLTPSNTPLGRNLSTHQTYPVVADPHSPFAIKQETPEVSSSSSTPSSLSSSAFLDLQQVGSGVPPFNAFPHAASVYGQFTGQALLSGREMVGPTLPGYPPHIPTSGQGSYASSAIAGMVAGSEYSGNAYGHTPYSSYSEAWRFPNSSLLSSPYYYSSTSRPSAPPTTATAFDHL
1-phosphatidylinositol 4,5-bisphosphate phosphodiesterase beta-3, sequence (Q01970 whole entry): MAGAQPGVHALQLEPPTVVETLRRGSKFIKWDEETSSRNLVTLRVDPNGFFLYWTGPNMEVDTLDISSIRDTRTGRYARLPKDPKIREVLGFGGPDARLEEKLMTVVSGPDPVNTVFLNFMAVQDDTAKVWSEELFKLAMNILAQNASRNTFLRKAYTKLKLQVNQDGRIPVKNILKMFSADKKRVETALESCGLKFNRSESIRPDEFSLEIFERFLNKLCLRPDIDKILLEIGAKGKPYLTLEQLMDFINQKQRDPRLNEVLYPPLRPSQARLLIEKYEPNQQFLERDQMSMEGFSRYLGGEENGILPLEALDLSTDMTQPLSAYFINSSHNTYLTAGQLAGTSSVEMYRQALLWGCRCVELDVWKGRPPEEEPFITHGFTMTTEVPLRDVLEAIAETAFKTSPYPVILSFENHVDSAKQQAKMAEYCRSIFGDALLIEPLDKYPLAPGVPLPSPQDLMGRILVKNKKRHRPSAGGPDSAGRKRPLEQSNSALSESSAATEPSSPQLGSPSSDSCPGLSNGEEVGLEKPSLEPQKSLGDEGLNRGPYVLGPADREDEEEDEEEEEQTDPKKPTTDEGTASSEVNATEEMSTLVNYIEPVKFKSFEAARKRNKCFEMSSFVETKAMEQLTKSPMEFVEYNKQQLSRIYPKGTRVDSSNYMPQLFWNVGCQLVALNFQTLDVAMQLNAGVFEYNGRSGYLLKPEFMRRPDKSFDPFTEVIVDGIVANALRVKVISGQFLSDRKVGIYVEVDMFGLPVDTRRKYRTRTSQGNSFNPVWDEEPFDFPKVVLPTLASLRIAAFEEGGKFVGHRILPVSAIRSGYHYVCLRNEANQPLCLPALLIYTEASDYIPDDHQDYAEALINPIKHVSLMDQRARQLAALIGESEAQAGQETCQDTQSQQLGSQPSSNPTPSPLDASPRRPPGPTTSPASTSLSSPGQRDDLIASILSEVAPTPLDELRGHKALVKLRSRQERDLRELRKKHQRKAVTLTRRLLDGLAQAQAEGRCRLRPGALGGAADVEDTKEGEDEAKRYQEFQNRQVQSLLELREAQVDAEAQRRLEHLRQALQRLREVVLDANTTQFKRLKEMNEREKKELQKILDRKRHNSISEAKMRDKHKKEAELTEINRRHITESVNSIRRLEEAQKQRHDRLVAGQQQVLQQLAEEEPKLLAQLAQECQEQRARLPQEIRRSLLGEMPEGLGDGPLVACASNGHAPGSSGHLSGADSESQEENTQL

## CCOC(=O)COc1ccc2c(c1)C(=O)CC1(CCCCC1)O2
cells
  IC50: 1.18 µM (active)
Kallikrein-7
  EC50: > 69.5 µM (inactive)

## CCOc1cccc(NC(=O)C2CCCN(S(=O)(=O)c3ccc(-n4cnnn4)cc3)C2)c1 (centres undefined)
[1]
  IC50: > 93.1 µM (not active)

## O=C(O)c1ccc(-n2c(-c3cc(-c4ccco4)[nH]n3)n[nH]c2=S)cc1
[2]
  EC50: 4.19 µM (inconclusive)
[3]
  EC50: 4.74 µM (inconclusive)
[4]
  IC50: > 80 µM (inactive)
[5]
  IC50: 1.59 µM (active)
[6]
  IC50: 102 µM (inactive)
[7]
  IC50: > 122 µM (inactive)

## Cc1ccc(-c2cn3cc(C)ccc3n2)cc1
[8]
  AC50: 2.03 µM (active)
[9]
  AC50: 1.32 µM (active)
Paired box protein Pax-8
  AC50: 3.46 µM (active)
[10]
  AC50: 7.73 µM (active)

## CC[n+]1ccc(C)c2cc([S+]([O-])C(F)(F)F)ccc21 (centres undefined)
[11]
  IC50: 55.4 µM (active)

## Cc1c(F)cccc1NC(=O)CCCCCC1NC(=O)NC1C (centres undefined)
Nonstructural protein 1
  IC50: 1.18 µM (active)
[12]
  IC50: 0.0143 µM (active)
[11]
  IC50: 29.8 µM (active)

## CCN1CCN(c2cc(C)c3cc(NC(=O)c4ccc(C)c(C)c4)ccc3n2)CC1
Kallikrein-7
  EC50: 17.2 µM (inactive)

## Fc1ccc(NC(S)=Nc2ccc3nccnc3c2)cc1
[13]
  IC50: > 50 µM (not active)
H9c2
  IC50: 22.5 µM (active)

## COC(=O)c1cccc(NC(=O)CN2CCC(NC(=O)c3cc(OC)c(OC)c(OC)c3)CC2)c1
[1]
  IC50: 1.7 µM (active)

## CCOc1ccc(N(C)S(=O)(=O)c2cc(-c3cc(C)no3)ccc2C(C)C)cc1
[9]
  AC50: 4.13 µM (active)
[14]
  AC50: 58.4 µM (active)
[15]
  AC50: 16.7 µM (active)
[16]
  AC50: 1.32 µM (active)
[17]
  AC50: 3 µM (active)
[18]
  AC50: 1.27 µM (active)
[19]
  AC50: 7.87 µM (active)
[10]
  AC50: 5.22 µM (active)

## Cc1ccc2nc(N)[nH]c(=O)c2c1Sc1ccncc1
[20]
  IC50: > 10 µM (inactive)
[21]
  IC50: 2.24 µM (active)
[22]
  IC50: 0.343 µM (active)
[23]
  IC50: 3.5 µM (active)
[24]
  IC50: > 20 µM (inactive)
[25]
  IC50: > 20 µM (inactive)
[26]
  IC50: > 10 µM (inactive)
[27]
  IC50: 4.75 µM (active)
[28]
  IC50: > 20 µM (inactive)
[29]
  IC50: 0.83 µM (active)

## COc1c(C)c2c(c(O)c1C/C=C(\C)CCC(=O)OCCN1CCOCC1)C(=O)OC2 [MYCOPHENOLATE MOFETIL]
[20]
  IC50: > 10 µM (inactive)
[21]
  IC50: 2.6 µM (active)
[22]
  IC50: 0.165 µM (active)
[23]
  IC50: 0.0672 µM (active)
[24]
  IC50: > 20 µM (inactive)
[25]
  IC50: 0.001 µM (active)
[26]
  IC50: > 10 µM (inactive)
[27]
  IC50: > 20 µM (inactive)
[28]
  IC50: > 20 µM (inactive)
[29]
  IC50: 0.0498 µM (active)

— ChEMBL document CHEMBL1201862, “PubChem BioAssay data set” (2004)
